Bounds are passed on as bounds.

Chain of PD-L1 (Q9NZQ7 19-238): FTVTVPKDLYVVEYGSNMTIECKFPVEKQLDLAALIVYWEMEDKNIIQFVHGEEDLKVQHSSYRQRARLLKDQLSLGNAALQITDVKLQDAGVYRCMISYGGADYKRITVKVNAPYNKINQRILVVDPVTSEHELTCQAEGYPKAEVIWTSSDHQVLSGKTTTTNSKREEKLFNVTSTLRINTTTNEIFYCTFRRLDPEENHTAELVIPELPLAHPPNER

The test concerns the target PD-L1 (Homo sapiens (Human), UniProt Q9NZQ7). The test is described as follows: PD-1/PD-L1 homogeneous time-resolved fluorescence (HTRF) binding assay. The settings on record: Cisbio PD1/PD-L1 binding assay kit. An excerpt:
PD-1/PD-L1 homogeneous time-resolved fluorescence (HTRF) detection technology was used to detect the binding ability of the compound to PD-L1.
PD1/PD-L1 binding assay kit (Cisbio, Cat #63ADK000CPDEC) was used, which includes two proteins, Tag 1-PD-L1 and Tag 2-PD-1, and two antibodies, Anti-Tag1-Eu^3+ and Anti-Tag2-XL 665. Assay principle: Anti-tag1-Eu^3+ is the HTRF donor, and Anti-Tag2-XL 665 is the HTRF acceptor. When Tag 1-PD-L1 and Tag 2-PD-1 interact, the added HTRF donor and the acceptor are close to each other. After the donor receives the excitation energy, it transfers part of the energy to the acceptor, thus producing 665 nm emission signal. When the compound is added to block the PD1/PD-L1 interaction, only 620 nm emission light was detected. The inhibitory effect of the compound was determined by analyzing the ratio of 665 nm/620 nm. Tag 1-PD-L1 was diluted with Diluent buffer (cat #62DLBDDF) to a working concentration of 10 nM, Tag 2-PD-1 was diluted with Diluent buffer to a working concentration of 500 nM, and Anti-Tag1-Eu^3+ was diluted with detection buffer (cat #62DB1FDG) by 1:100, Anti-Tag2-XL 665 was diluted with detection buffer by 1:20, and the test compound was diluted with Diluent buffer to a final concentration of 2×. In a 384-well plate, 2 μL of compound was added to each well, and then 4 μL of Tag 1-PD-L1, 4 μL of Tag 2-PD-1 were added and incubated at room temperature for 15 minutes. 5 μL Anti-Tag1-Eu^3+ and 5 μL Anti-Tag2-XL 665 were added and incubated overnight at room temperature, and detected with BioTek Synergy™ Neo2 Multifunctional Microplate Reader to obtain the ratio of 665 nm/620 nm. The IC50 curve was fitted by GraphPad Prism 5.02.
Consider `Cc1c(CO)cccc1-c1cccc(COc2cccc(CN)n2)c1C` [Compound 7, (3′-(((6-(aminomethyl)pyridin-2-yl)oxo)methyl)-2,2′-dimethyl-[1,1′-biphenyl]-3-yl)methanol], for which the IC50 was above 1000 nM.
With `COc1nc(OCc2cccc(-c3cccc(COc4ccc(CNC(C)(CO)CO)c(OC)n4)c3C)c2C)ccc1CNC(C)(CO)CO` [Compound 50], the IC50 is below 10 nM.
For `COc1nc(OCc2cccc(-c3cccc(COc4ccc(CN5CCCC[C@@H]5C(=O)O)c(OC)n4)c3C)c2C)ccc1CN1CCCC[C@@H]1C(=O)O` [Compound 27] the value was below 10 nM; for `Cc1c(CO)cccc1-c1cccc(COc2cccc(N)n2)c1C` [Compound 13, (3′(((6-aminopyridin-2-yl)oxo)methyl)-2,2′-dimethyl-[1,1′-biphenyl]-3-yl) methanol], above 1000 nM; for `COc1cc(N)cc(OCc2cccc(-c3cccc(CO)c3C)c2C)n1` [Compound 12, (3′-(((4-amino-6-methoxypyridin-2-yl)oxo)methyl)-2,2′-dimethyl-[1,1′-biphenyl]-3-yl)methanol], above 1000 nM.
For the compound `COc1nc(OCc2cccc(-c3cccc(COc4ccc(CN5C[C@@H](O)C[C@H]5C(=O)O)c(OC)n4)c3Cl)c2Cl)ccc1CO` [Compound 57], the IC50 was 10 to 100 nM.
In the case of `COc1nc(OCc2cccc(-n3nnc(COc4ccc(CNCCNC(C)=O)c(OC)n4)c3C)c2C)ccc1CNCCNC(C)=O` [Compound 31], the IC50 was above 1000 nM.
`COc1nc(OCc2cccc(-c3cccc(COc4ccc(CNCc5nnn[nH]5)c(OC)n4)c3Cl)c2Cl)ccc1CNCc1nnn[nH]1` [Compound 75]: the IC50 is below 10 nM.
For `COc1nc(OCc2cccc(-c3cccc(COc4ccc(CNC5CNC(=O)C5)c(OC)n4)c3C)c2C)ccc1CNC1CNC(=O)C1` (stereo not drawn) [Compound 55] the value was 10 to 100 nM.
For `COc1nc(OCc2cccc(-c3cccc(COc4ccc(CN5CC[C@@H](NC(C)=O)C5)c(OC)n4)c3C)c2C)ccc1CN1CC[C@@H](NC(C)=O)C1` [Compound 52] the value was 10 to 100 nM; for `COc1nc(OCc2cccc(-c3cccc(COc4ccc(CN5C[C@@H](O)C[C@H]5C(=O)O)c(OC)n4)c3C#N)c2C)ccc1CN1C[C@@H](O)C[C@H]1C(=O)O` [Compound 56], below 10 nM.
To `COc1nc(OCc2cccc(-c3cccc(COc4ccc(CN(CCO)CCO)c(OC)n4)c3Cl)c2Cl)ccc1CN(CCO)CCO` [Compound 72] belongs below 10 nM.
For `COc1nc(OCc2cccc(-c3cccc(COc4ccc(CN5C[C@@H](F)C[C@H]5C(=O)O)c(OC)n4)c3Cl)c2Cl)ccc1CN1C[C@@H](F)C[C@H]1C(=O)O` [Compound 79], the IC50 is below 10 nM.
For `CC(=O)NCCNCC(=O)Nc1cnn(Cc2cccc(-c3cccc(Cn4cc(NC(=O)CNCCNC(C)=O)cn4)c3C)c2C)c1` [Compound 25] the value was above 1000 nM; for `COc1nc(OCc2cccc(-c3cccc(COc4ccc(CN5CCC6(CCC(=O)N6)C5)c(OC)n4)c3C)c2C)ccc1CN1CCC2(CCC(=O)N2)C1` (stereo not drawn) [Compound 60], below 10 nM.
For `COc1nc(OCc2cccc(-c3cccc(COc4ccc(CNCC(N)=O)c(OC)n4)c3Cl)c2Cl)ccc1CNCC(N)=O` [Compound 73] the value was below 10 nM; for `COc1nc(OCc2cccc(-c3cccc(COc4ccc(CN5C[C@@H](O)C[C@H]5C(=O)O)c(OC)n4)c3F)c2C)ccc1CN1C[C@@H](O)C[C@H]1C(=O)O` [Compound 66], below 10 nM.
Regarding `COc1nc(OCc2cccc(-c3cccc(CO)c3C)c2C)ccc1N` [Compound 8], the IC50 is above 1000 nM.
To `COc1nc(OCc2cccc(-c3cccc(COc4ccc(CN5CC(O)(C(=O)O)C5)c(OC)n4)c3C)c2C)ccc1CN1CC(O)(C(=O)O)C1` [Compound 42] belongs below 10 nM; to `COc1nc(OCc2cccc(-n3c(C)nc(COc4ccc(CNCCNC(C)=O)c(OC)n4)c3C)c2C)ccc1CNCCNC(C)=O` [Compound 44], above 1000 nM; to `COc1nc(OCc2cccc(-c3cccc(CO)c3C)c2C)ccc1CCN` [Compound 15, (3′-(((5-(2-aminoethyl)-6-methoxypyridin-2-yl)oxo)methyl)-2,2′-dimethyl-[1,1′-biphenyl]-3-yl) methanol], 100 to 1000 nM.
Consider `COc1nc(OCc2cccc(-c3csc(COc4ccc(CNCCNC(C)=O)c(OC)n4)c3C)c2C)ccc1CNCCNC(C)=O` [Compound 36], for which the IC50 is below 10 nM.
For `COc1nc(OCc2cccc(-c3cccc(COc4ccc(CN5CCCC(C(N)=O)C5)c(OC)n4)c3C)c2C)ccc1CN1CCCC(C(N)=O)C1` (stereo not drawn) [Compound 53] the value was 100 to 1000 nM; for `COc1nc(OCc2cccc(-c3cccc(COc4ccc(CNCCC(N)=O)c(OC)n4)c3C)c2C)ccc1CNCCC(N)=O` [Compound 22], 10 to 100 nM.
Regarding `COc1cc(OCc2cccc(-c3cccc(CO)c3C)c2C)cc(OC)c1CNCCNC(C)=O` [Compound 10, N-(2-((4-((3′-(hydroxymethyl)-2,2′-dimethyl-[1,1′-biphenyl]-3-yl)methoxy)-2,6-dimethoxybenzyl)amino)ethyl) acetamide], the IC50 was above 1000 nM.
To `COc1nc(OCc2cccc(-c3cccc(COc4ccc(CN5C[C@@H](O)C[C@H]5C(=O)O)c(OC)n4)c3Cl)c2Cl)ccc1CN1CC[C@H](O)C1` [Compound 58] belongs below 10 nM; to `COc1nc(OCc2cccc(-c3cccc(COc4ccc(CN5CCCC[C@H]5C(=O)O)c(OC)n4)c3C)c2C)ccc1CN1CCCC[C@H]1C(=O)O` [Compound 26], below 10 nM; to `COc1nc(OCc2cccc(-c3cccc(COc4ccc(CNC5CCOC5=O)c(OC)n4)c3C)c2C)ccc1CNC1CCOC1=O` (stereo not drawn) [Compound 64], 10 to 100 nM.
On to `COc1nc(OCc2cccc(-c3cccc(COc4ccc(CN[C@@H](CC(N)=O)C(=O)O)c(OC)n4)c3C)c2C)ccc1CN[C@@H](CC(N)=O)C(=O)O` [Compound 49], for which the IC50 is below 10 nM.
As for `COc1nc(OCc2cccc(-c3cccc(COc4ccc(CN5CC(NC(C)=O)C5)c(OC)n4)c3Cl)c2Cl)ccc1CN1CC(NC(C)=O)C1` [Compound 74], the IC50 was below 10 nM.
As for `COc1nc(OCc2cccc(-c3cccc(COc4ccc(CNCCS(N)(=O)=O)c(OC)n4)c3Cl)c2Cl)ccc1CNCCS(N)(=O)=O` [Compound 78], the IC50 was below 10 nM.
In the case of `COc1nc(OCc2cccc(-c3cccc(COc4ccc(CN5CCC(CC#N)CC5)c(OC)n4)c3C)c2C)ccc1CN1CCC(CC#N)CC1` [Compound 59], the IC50 fell in the range of 10 to 100 nM.
Turning to `COc1nc(OCc2cccc(-c3cccc(COc4ccc(CNCC(C)C(=O)O)c(OC)n4)c3C)c2C)ccc1CNCC(C)C(=O)O` (stereo not drawn) [Compound 33], the IC50 is 10 to 100 nM.
Turning to `COc1nc(OCc2cccc(-c3cccc(COc4ccc(CN)c(OC)n4)c3C)c2C)ccc1CN` [Compound 6, ((((2,2′-dimethyl-[1,1′-biphenyl)-3,3′-diyl)bis (methylene))bis (oxo))bis (2-methoxypyridine-6,3-diyl)) dimethylamine], the IC50 lay within 10 to 100 nM.
On to `COc1nc(OCc2cccc(-n3cnc(COc4ccc(CNCCNC(C)=O)c(OC)n4)c3C)c2C)ccc1CNCCNC(C)=O` [Compound 38], for which the IC50 is above 1000 nM.
For `COc1nc(OCc2cccc(-c3cccc(COc4ccc(CN5CC(CC(N)=O)C5)c(OC)n4)c3Cl)c2Cl)ccc1CN1CC(CC(N)=O)C1` [Compound 76], the IC50 is below 10 nM.
For `COc1nc(OCc2cccc(-c3cccc(COc4ccc(CN5CC(CC#N)C5)c(OC)n4)c3C)c2C)ccc1CN1CC(CC#N)C1` [Compound 61], the IC50 was 10 to 100 nM.
For `COc1nc(OCc2cccc(-c3cccc(COc4ccc(CNC5(C(=O)O)CC5)c(OC)n4)c3C)c2C)ccc1CNC1(C(=O)O)CC1` [Compound 37] the value was below 10 nM.
As to `COc1nc(OCc2cccc(-c3cccc(COc4ccc(CNC(CCO)C(=O)O)c(OC)n4)c3C)c2C)ccc1CNC(CCO)C(=O)O` (stereo not drawn) [Compound 67], the IC50 is below 10 nM.
To `COc1nc(OCc2cccc(-c3cccc(COc4ccc(CN5C[C@@H](F)C[C@H]5C(=O)O)c(OC)n4)c3Cl)c2Cl)ccc1CN1CCC(C(F)F)C1` (stereo partly drawn) [Compound 81] belongs below 10 nM; to `COc1nc(OCc2cccc(COc3ccc(CNCCNC(C)=O)c(OC)n3)c2C)ccc1CNCCNC(C)=O` [Compound 19], 100 to 1000 nM.
To `COC(=O)[C@@H]1C[C@H](O)CN1Cc1ccc(OCc2cccc(-c3cccc(COc4ccc(CN5C[C@@H](O)C[C@H]5C(=O)OC)c(OC)n4)c3Cl)c2Cl)nc1OC` [Compound 48] belongs 100 to 1000 nM.
For `CNS(=O)(=O)CCNCc1ccc(OCc2cccc(-c3cccc(COc4ccc(CNCCS(=O)(=O)NC)c(OC)n4)c3Cl)c2Cl)nc1OC` [Compound 80] the value was 10 to 100 nM; for `COc1nc(OCc2cccc(-c3cccc(COc4ccc(CNC5CCCCC5O)c(OC)n4)c3C)c2C)ccc1CNC1CCCCC1O` (stereo not drawn) [Compound 24], 10 to 100 nM.
As for `COc1nc(OCc2cccc(-c3cccc(COc4ccc(CN5CCC5C(=O)O)c(OC)n4)c3C)c2C)ccc1CN1CCC1C(=O)O` (stereo not drawn) [Compound 35], the IC50 is below 10 nM.

Source of the values: US11787766B2, “Compound having PD-L1 inhibitory activity, preparation method therefor and use thereof” (SHANGHAI ENNOVABIO PHARMACEUTICALS CO., LTD., priority 2017, dated 2023).
